# Target: T1, BRD4(BD1) (Homo sapiens, UniProt O60885)
# T1 construct: His; made in house
# Assay: BRD4 Alphalisa binding assay
# Settings: not given
# Protocol: IC50 Measurements for Inhibitors Using BRD4 Alphalisa Binding Assay
# His/[…] epitope tagged BRD4 BD142-168 was cloned, expressed and purified to homogeneity. BRD4 binding and inhibition was assessed by monitoring the engagement of biotinylated H4-tetraacetyl peptide (Millipore #12-379) with the target using the AlphaLisa technology (Perkin-Elmer). Specifically, in a 384 well ProxiPlate BRD4(BD1) (30 nM final) was combined with peptide (200 nM final) in 40 mM HEPES (pH 7.0), 40 mM NaCl, 1 mM DTT, 0.01% (w/v) BSA, and 0.008% (w/v) Brij-35 either in the presence of DMSO (final 1.2% DMSO) or compound dilution series in DMSO. After 20 minute incubation at room temperature Alpha streptavidin donor beads and AlphaLisa anti-Flag acceptor beads were added to a final concentration of 10 ug/mL each. After three hours equilibration plates were read on an Envision instrument and IC50s calculated using a four parameter non-linear curve fit.
row,Structure (SMILES),IC50 [nM]
1,"Cc1sc2c(c1C)C(c1ccc(Cl)cc1)=NC1(CC1)c1nnc(C)n1-2 [Compound 214, 4′-(4-Chlorophenyl)-2′,3′,9′-trimethylspiro[cyclopropane-1,6′-thieno[3,2-f][1,2,4]triazolo[4,3-a][1,4]diazepine]]",< 500

# Same assay, conditions: BRD4(BD1) 30 nM, biotinylated H4-tetraacetyl peptide 200 nM; read-out: BRD4 Alphascreen IC50
row,Structure (SMILES),IC50 [nM]
1,"CCNC(=O)[C@@H]1C[C@]12N=C(c1ccc(Cl)cc1)c1c(sc(C)c1C)-n1c(C)nnc12 [Compound 204, (1S,2R)-4′-(4-chlorophenyl)-N-ethyl-2′,3′,9′-trimethylspiro[cyclopropane-1,6′-thieno[3,2-f][1,2,4]triazolo[4,3-a][1,4]diazepine]-2-carboxamide]",> 1000
2,"Cc1sc2c(c1C)C(c1ccc(Cl)cc1)=N[C@]1(C[C@H]1C(N)=O)c1nnc(C)n1-2 [Compound 205, (1S,2R)-4′-(4-Chlorophenyl)-2′,3′,9′-trimethylspiro[cyclo-propane-1,6′-thieno[3,2-f][1,2,4]triazolo[4,3-a][1,4]diazepine]-2-carboxamide]",500 to 1000
3,"CCNC(=O)[C@H]1C[C@@]12N=C(c1ccc(Cl)cc1)c1c(sc(C)c1C)-n1c(C)nnc12 [Compound 211, (1R,2S)-4′-(4-chlorophenyl)-N-ethyl-2′,3′,9′-trimethylspiro[cyclopropane-1,6′-thieno[3,2-f][1,2,4]triazolo[4,3-a][1,4]diazepine]-2-carboxamide]",> 1000
4,"CCNC(=O)[C@@H]1C[C@@]12N=C(c1ccc(Cl)cc1)c1c(sc(C)c1C)-n1c(C)nnc12 [Compound 212, (1R,2R)-4′-(4-Chlorophenyl)-N-ethyl-2′,3′,9′-trimethylspiro-[cyclopropane-1,6′-thieno[3,2-f][1,2,4]triazolo[4,3-a][1,4]diazepine]-2-carboxamide]",> 1000
5,"Cc1nsc2c1C(c1ccc(Cl)cc1)=NC1(CC1)c1nnc(C)n1-2 [Compound 213, 4′-(4-chlorophenyl)-3′,9′-dimethylspiro[cyclopropane-1,6′-isothiazolo[4,5-f][1,2,4]triazolo[4,3-a][1,4]diazepine]]",> 1000
6,"Cc1nnc2n1-c1ccccc1C(c1ccc(Cl)cc1)=NC21CC1 [Compound 216, 6-(4-chlorophenyl)-1-methylspiro[benzo[f][1,2,4]triazolo[4,3-a][1,4]diazepine-4,1′-cyclopropane]]",< 500
7,"Cc1sc2c(c1C)C(c1ccc(Cl)cc1)=NC1(CC1)c1nncn1-2 [Compound 217, 4′-(4-Chlorophenyl)-2′,3′-dimethylspiro[cyclopropane-1,6′-thieno[3,2-f][1,2,4]triazolo[4,3-a][1,4]diazepine]]",> 1000
8,"Cc1sc2c(c1C)C(c1ccc(Cl)cc1)=N[C@@]1(C[C@@H]1C)C(=O)N2 [Compound 218, (1R,2S)-5′-(4-chlorophenyl)-2,6′,7′-trimethylspiro[cyclopropane-1,3′-thieno[2,3-e][1,4]diazepin]-2′(1′H)-one]",> 1000
9,"Cc1sc2c(c1C)C(c1ccc(Cl)cc1)=N[C@]1(C[C@H]1C)c1n[nH]c(=O)n1-2 [Compound 222, (1S,2R)-4′-(4-chlorophenyl)-2,2′,3′-trimethylspiro[cyclopropane-1,6′-thieno[3,2-f][1,2,4]triazolo[4,3-a][1,4]diazepin]-9′(8′H)-one 2,2,2-trifluoroacetic acid]",> 1000
10,"Cc1sc2c(c1C)C(c1ccc(Cl)cc1)=NC1(CNC1)c1nnc(C)n1-2 [Compound 224, 4′-(4-chlorophenyl)-2′,3′,9′-trimethylspiro[azetidine-3,6′-thieno[3,2-f][1,2,4]triazolo[4,3-a][1,4]diazepine]]",> 1000
11,"Cc1noc2c1-c1ccc(Cl)cc1C(c1ccc(F)cc1)=NC21CC1 [Compound 250, 8-Chloro-6-(4-fluorophenyl)-1-methylspiro[benzo[c]isoxazolo[4,5-e]azepine-4,1′-cyclopropane]]",> 1000
12,"Cc1noc2c1-c1ccc(-c3ccc(N)nc3)cc1C(c1ccc(F)cc1)=NC21CC1 [Compound 251, 5-(6-(4-Fluorophenyl)-1-methylspiro[benzo[c]isoxazolo[4,5-e]azepine-4,1′-cyclopropan]-8-yl)pyridin-2-amine]",< 500
13,"Cc1noc2c1-c1cn(C)nc1C(c1ccc(Cl)cc1)=NC2 [Compound 265, 6-(4-chlorophenyl)-1,8-dimethyl-4,8-dihydroisoxazolo[5,4-c]pyrazolo[4,3-e]azepine]",> 1000

# More lines, now with the values ahead:
row,IC50 [nM],Structure (SMILES)
1,< 500,"Cc1sc2c(c1C)C(c1ccc(Cl)cc1)=NC1(CC1C)c1nnc(C)n1-2 (racemic) [Compound 215, 4′-(4-chlorophenyl)-2,2′,3′,9′-tetramethylspiro[cyclopropane-1,6′-thieno[3,2-f][1,2,4]triazolo[4,3-a][1,4]diazepine]]"
2,< 500,"COC[C@@H]1C[C@]12N=C(c1ccc(Cl)cc1)c1c(sc(C)c1C)-n1c(C)nnc12 [Compound 202, (1S,2R)-4′-(4-chlorophenyl)-2-(methoxymethyl)-2′,3′,9′-trimethylspiro[cyclopropane-1,6′-thieno[3,2-f][1,2,4]triazolo[4,3-a][1,4]diazepine]]"
3,< 500,"Cc1sc2c(c1C)C(c1ccc(Cl)cc1)=N[C@]1(C[C@H]1CO)c1nnc(C)n1-2 [Compound 203, ((1S,2R)-4′-(4-chlorophenyl)-2′,3′,9′-trimethylspiro[cyclopropane-1,6′-thieno[3,2-f][1,2,4]triazolo[4,3-a][1,4]diazepin]-2-yl)methanol]"
4,< 500,"Cc1sc2c(c1C)C(c1ccc(Cl)cc1)=N[C@]1(C[C@H]1CN)c1nnc(C)n1-2 [Compound 206, ((1S,2S)-4′-(4-Chlorophenyl)-2′,3′,9′-trimethylspiro[cyclo-propane-1,6′-thieno[3,2-f][1,2,4]triazolo[4,3-a][1,4]diazepin]-2-yl)methanamine]"
5,< 500,"CC(=O)NC[C@@H]1C[C@]12N=C(c1ccc(Cl)cc1)c1c(sc(C)c1C)-n1c(C)nnc12 [Compound 207, N-(((1S,2S)-4′-(4-Chlorophenyl)-2′,3′,9′-trimethylspiro[cyclopropane-1,6′-thieno[3,2-f][1,2,4]triazolo[4,3-a][1,4]diazepin]-2-yl)methyl)acetamide]"
6,< 500,"CCNC[C@@H]1C[C@]12N=C(c1ccc(Cl)cc1)c1c(sc(C)c1C)-n1c(C)nnc12 [Compound 208, N-(((1S,2S)-4′-(4-Chlorophenyl)-2′,3′,9′-trimethylspiro[cyclopropane-1,6′-thieno[3,2-f][1,2,4]triazolo[4,3-a][1,4]diazepin]-2-yl)methyl)ethanamine]"
7,< 500,"COC[C@H]1C[C@@]12N=C(c1ccc(Cl)cc1)c1c(sc(C)c1C)-n1c(C)nnc12 [Compound 209, (1R,2S)-4′-(4-chlorophenyl)-2-(methoxymethyl)-2′,3′,9′-trimethylspiro[cyclopropane-1,6′-thieno[3,2-f][1,2,4]triazolo[4,3-a][1,4]diazepine]]"
8,< 500,"Cc1sc2c(c1C)C(c1ccc(Cl)cc1)=N[C@@]1(C[C@@H]1CO)c1nnc(C)n1-2 [Compound 210, ((1R,2S)-4′-(4-Chlorophenyl)-2′,3′,9′-trimethylspiro[cyclo-propane-1,6′-thieno[3,2-f][1,2,4]triazolo[4,3-a][1,4]diazepin]-2-yl)methanol]"
9,< 500,"Cc1sc2c(c1C)C(c1ccc(Cl)cc1)=N[C@@]1(C[C@@H]1C)c1nnc(C)n1-2 [Compound 219, (1R,2S)-4′-(4-chlorophenyl)-2,2′,3′,9′-tetramethylspiro-[cyclopropane-1,6′-thieno[3,2-f][1,2,4]triazolo[4,3-a][1,4]diazepine]]"
10,< 500,"Cc1sc2c(c1C)C(c1ccc(Cl)cc1)=N[C@]1(C[C@H]1C)c1nnc(C)n1-2 [Compound 220, (1S,2R)-4′-(4-chlorophenyl)-2,2′,3′,9′-tetramethyl-spiro[cyclopropane-1,6′-thieno[3,2-f][1,2,4]triazolo[4,3-a][1,4]diazepine]]"
11,< 500,"Cc1sc2c(c1C)C(c1ccc(N)cc1)=N[C@]1(C[C@H]1C)c1nnc(C)n1-2 [Compound 221, 4-((1S,2R)-2,2′,3′,9′-tetramethylspiro[cyclopropane-1,6′-thieno[3,2-f][1,2,4]triazolo[4,3-a][1,4]diazepin]-4′-yl)aniline]"
12,< 500,"Cc1sc2c(c1C)C(c1ccc(Cl)cc1)=NC1(CCC1)c1nnc(C)n1-2 [Compound 223, 4′-(4-chlorophenyl)-2′,3′,9′-trimethylspiro[cyclobutane-1,6′-thieno[3,2-f][1,2,4]triazolo[4,3-a][1,4]diazepine]]"
13,< 500,"Cc1sc2c(c1C)C(c1ccc(Cl)cc1)=NC1(COC1)c1nnc(C)n1-2 [Compound 226, 4′-(4-Chlorophenyl)-2′,3′,9′-trimethylspiro[oxetane-3,6′-thieno[3,2-f][1,2,4]triazolo[4,3-a][1,4]diazepine]]"
